#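 Each compound was tested at five concentrations against cells in 96-well plates for 48 hours. The concentration for 50% growth inhibition is given as GI50.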 Calls of active or inactive are those of the source. Rule as the data show it: active = GI50 up to about 1.1 µM and inactive = higher.
# Tests used:
# Test in all cases: NCI tumour cell line growth inhibition, 48 h
# [1] = tested on: IGROV-1
# [2] = tested on: SNB-75
# [3] = tested on: A498
# [4] = tested on: UACC-257
# [5] = tested on: SK-OV-3
# [6] = tested on: MDA-N
# [7] = tested on: DU-145
# [8] = tested on: SK-MEL-5
# [9] = tested on: HOP-92
# [10] = tested on: SF-539
# [11] = tested on: HCT-116
# [12] = tested on: ACHN
# [13] = tested on: SK-MEL-28
# [14] = tested on: SF-268
# [15] = tested on: SW-620
# [16] = tested on: CCRF-CEM
# [17] = tested on: LOX IMVI
# [18] = tested on: M14
# [19] = tested on: Malme-3M
# [20] = tested on: UACC-62
# [21] = tested on: 786-0
# [22] = tested on: SK-MEL-2
# [23] = tested on: CAKI-1
# [24] = tested on: K562
# [25] = tested on: NCI-H23
# [26] = tested on: BT-549
# [27] = tested on: MOLT-4
# [28] = tested on: SF-295
# [29] = tested on: PC-3
# [30] = tested on: HT-29
# [31] = tested on: NCI/ADR-RES
# [32] = tested on: SN12C
# [33] = tested on: KM12
# [34] = tested on: OVCAR-3
# [35] = tested on: EKVX
# [36] = tested on: HCC 2998
# [37] = tested on: NCI-H460
# [38] = tested on: OVCAR-5
# [39] = tested on: NCI-H226
# [40] = tested on: MDA-MB-435
# [41] = tested on: COLO 205
# [42] = tested on: T47D
# [43] = tested on: OVCAR-8
# [44] = tested on: HOP-62
# [45] = tested on: HL-60
# [46] = tested on: HCT-15
# [47] = tested on: UO-31
# [48] = tested on: SR
# [49] = tested on: Hs-578T
# [50] = tested on: A549
# [51] = tested on: NCI-H522
# [52] = tested on: MCF7
# [53] = tested on: SNB-19
# [54] = tested on: RPMI-8226
# [55] = tested on: RXF 393
# [56] = tested on: OVCAR-4
# [57] = tested on: U-251
# [58] = tested on: TK-10
# [59] = tested on: MDA-MB-231
smiles,measurement,setting,value
CSc1ccc(/C=C2\N=C(c3ccccc3)N(NC(=O)c3c(Cl)c(Cl)c(Cl)c(Cl)c3-c3nc4ccccc4[nH]3)C2=O)cc1,GI50,[1],1.79 µM (inactive)
same,GI50,[2],8.3 µM (inactive)
same,GI50,[3],30.8 µM (inactive)
same,GI50,[4],28.4 µM (inactive)
same,GI50,[5],5.48 µM (inactive)
same,GI50,[6],6.87 µM (inactive)
same,GI50,[7],28.4 µM (inactive)
same,GI50,[8],21.7 µM (inactive)
same,GI50,[9],17.5 µM (inactive)
same,GI50,[10],33 µM (inactive)
same,GI50,[11],25.2 µM (inactive)
same,GI50,[12],28.8 µM (inactive)
same,GI50,[13],30.8 µM (inactive)
same,GI50,[14],36.9 µM (inactive)
same,GI50,[15],29.9 µM (inactive)
same,GI50,[16],25.9 µM (inactive)
same,GI50,[17],30.9 µM (inactive)
same,GI50,[18],29.6 µM (inactive)
same,GI50,[19],30.1 µM (inactive)
same,GI50,[20],19.2 µM (inactive)
same,GI50,[21],36 µM (inactive)
same,GI50,[22],34.9 µM (inactive)
same,GI50,[23],21.7 µM (inactive)
same,GI50,[24],5.5 µM (inactive)
same,GI50,[25],24.7 µM (inactive)
same,GI50,[26],25.3 µM (inactive)
same,GI50,[27],20.7 µM (inactive)
same,GI50,[28],4.49 µM (inactive)
same,GI50,[29],36.6 µM (inactive)
same,GI50,[30],36.2 µM (inactive)
same,GI50,[31],25.1 µM (inactive)
same,GI50,[32],31 µM (inactive)
same,GI50,[33],6.84 µM (inactive)
same,GI50,[34],26.6 µM (inactive)
same,GI50,[35],25.5 µM (inactive)
same,GI50,[36],9.59 µM (inactive)
same,GI50,[37],4.43 µM (inactive)
same,GI50,[38],81.7 µM (inactive)
same,GI50,[39],14.2 µM (inactive)
same,GI50,[40],3.27 µM (inactive)
same,GI50,[41],22.4 µM (inactive)
same,GI50,[42],2.03 µM (inactive)
same,GI50,[43],37.8 µM (inactive)
same,GI50,[44],4.11 µM (inactive)
same,GI50,[45],23.7 µM (inactive)
same,GI50,[46],15.1 µM
same,GI50,[47],27.4 µM (inactive)
same,GI50,[48],2.22 µM (inactive)
same,GI50,[49],34.8 µM (inactive)
same,GI50,[50],30.1 µM (inactive)
same,GI50,[51],28.4 µM (inactive)
same,GI50,[52],19.5 µM (inactive)
same,GI50,[53],48.5 µM (inactive)
CCOc1cc(NC(C)=O)ccc1C(=O)NNS(=O)(=O)c1ccc(Cl)cc1Cl,GI50,[1],> 50 µM (inactive)
same,GI50,[2],> 50 µM (inactive)
same,GI50,[3],> 50 µM (inactive)
same,GI50,[4],> 50 µM (inactive)
same,GI50,[5],> 50 µM (inactive)
same,GI50,[6],10.6 µM (inactive)
same,GI50,[7],> 50 µM (inactive)
same,GI50,[8],14.6 µM (inactive)
same,GI50,[9],> 50 µM (inactive)
same,GI50,[10],> 50 µM (inactive)
same,GI50,[11],> 50 µM (inactive)
same,GI50,[12],> 50 µM (inactive)
same,GI50,[13],> 50 µM (inactive)
same,GI50,[14],> 50 µM (inactive)
same,GI50,[15],> 50 µM (inactive)
same,GI50,[16],> 50 µM (inactive)
same,GI50,[17],45.5 µM (inactive)
same,GI50,[54],7.48 µM (inactive)
same,GI50,[18],> 50 µM (inactive)
same,GI50,[19],> 50 µM (inactive)
same,GI50,[20],> 50 µM (inactive)
same,GI50,[21],> 50 µM (inactive)
same,GI50,[22],> 50 µM (inactive)
same,GI50,[23],> 50 µM (inactive)
same,GI50,[24],0.232 µM (active)
same,GI50,[25],> 50 µM (inactive)
same,GI50,[26],> 50 µM (inactive)
same,GI50,[27],8.75 µM (inactive)
same,GI50,[28],> 50 µM (inactive)
same,GI50,[29],> 50 µM (inactive)
same,GI50,[30],> 50 µM (inactive)
same,GI50,[31],> 50 µM (inactive)
same,GI50,[32],> 50 µM (inactive)
same,GI50,[33],31.5 µM (inactive)
same,GI50,[34],> 50 µM (inactive)
same,GI50,[35],> 50 µM (inactive)
same,GI50,[36],> 50 µM (inactive)
same,GI50,[37],> 50 µM (inactive)
same,GI50,[38],> 50 µM (inactive)
same,GI50,[39],> 50 µM (inactive)
same,GI50,[40],12.7 µM (inactive)
same,GI50,[55],> 50 µM (inactive)
same,GI50,[41],> 50 µM (inactive)
same,GI50,[42],> 50 µM (inactive)
same,GI50,[43],> 50 µM (inactive)
same,GI50,[44],> 50 µM (inactive)
same,GI50,[45],> 50 µM (inactive)
same,GI50,[46],> 50 µM
same,GI50,[47],> 50 µM (inactive)
same,GI50,[48],13.9 µM (inactive)
same,GI50,[49],> 50 µM (inactive)
same,GI50,[50],> 50 µM (inactive)
same,GI50,[51],> 50 µM (inactive)
same,GI50,[56],> 50 µM (inactive)
same,GI50,[52],26.4 µM (inactive)
same,GI50,[53],> 50 µM (inactive)
CC(CC(=O)CO[C@H]1[C@H](O)[C@@H](O)[C@@H](O)[C@@H]2NC(=O)c3c(cc4c(c3O)OCO4)[C@H]21)OC1OC(CO)C(O)C(O)C1O (some centres not stated),GI50,[1],0.547 µM (active)
same,GI50,[2],0.207 µM (active)
same,GI50,[3],1.09 µM (active)
same,GI50,[4],0.594 µM (active)
same,GI50,[5],0.469 µM (active)
same,GI50,[6],0.508 µM (active)
same,GI50,[8],0.322 µM (active)
same,GI50,[9],0.51 µM (active)
same,GI50,[10],0.419 µM (active)
same,GI50,[11],0.275 µM (active)
same,GI50,[12],0.444 µM (active)
same,GI50,[13],0.56 µM (active)
same,GI50,[14],0.367 µM (active)
same,GI50,[57],0.239 µM (active)
same,GI50,[15],0.374 µM (active)
same,GI50,[16],0.182 µM (active)
same,GI50,[17],0.255 µM (active)
same,GI50,[54],0.397 µM (active)
same,GI50,[18],0.425 µM (active)
same,GI50,[19],0.488 µM (active)
same,GI50,[20],0.733 µM (active)
same,GI50,[21],0.451 µM (active)
same,GI50,[22],0.242 µM (active)
same,GI50,[23],0.857 µM (active)
same,GI50,[24],0.309 µM (active)
same,GI50,[25],0.441 µM (active)
same,GI50,[26],0.495 µM (active)
same,GI50,[27],0.25 µM (active)
same,GI50,[28],1.12 µM (active)
same,GI50,[29],0.338 µM (active)
same,GI50,[58],0.408 µM (active)
same,GI50,[30],0.452 µM (active)
same,GI50,[31],0.543 µM (active)
same,GI50,[32],0.322 µM (active)
same,GI50,[33],0.3 µM (active)
same,GI50,[34],0.451 µM (active)
same,GI50,[35],0.553 µM (active)
same,GI50,[36],0.218 µM (active)
same,GI50,[59],0.355 µM (active)
same,GI50,[37],0.432 µM (active)
same,GI50,[38],1.26 µM (inactive)
same,GI50,[39],0.522 µM (active)
same,GI50,[40],0.392 µM (active)
same,GI50,[55],0.269 µM (active)
same,GI50,[41],0.272 µM (active)
same,GI50,[42],0.203 µM (active)
same,GI50,[43],0.313 µM (active)
same,GI50,[44],0.366 µM (active)
same,GI50,[45],0.372 µM (active)
same,GI50,[46],0.396 µM
same,GI50,[47],1.38 µM (inactive)
same,GI50,[48],0.325 µM (active)
same,GI50,[49],0.4 µM (active)
same,GI50,[50],0.646 µM (active)
same,GI50,[51],0.311 µM (active)
same,GI50,[56],0.277 µM (active)
same,GI50,[52],0.283 µM (active)
same,GI50,[53],0.304 µM (active)
